The values that follow come from ChEMBL document CHEMBL5705903, “A DNA Hypomethylation Signature Predicts Antitumor Activity of LSD1 Inhibitors in SCLC” (Cancer Cell, 2015).

The nature of data set [1]: Tmax in mouse at 5.5 mg/kg, ip by HPLC/MS/MS analysis. The class given is ADME, organism-based. Particulars: in vivo.
The nature of data set [2]: Dose normalized AUC (0 to infinity) in mouse at 5.5 mg/kg, ip by HPLC/MS/MS analysis. It is filed as ADME, organism-based. To be noted: in vivo.
The nature of data set [3]: Half life in mouse blood at 5 mg/kg, po by HPLC/MS/MS analysis. The class given is ADME, organism-based.
Data set [4] is described as follows: Half life in mouse tumor at 5 mg/kg, po by HPLC/MS/MS analysis. It is filed as ADME, organism-based, Neoplasm.
Data set [5] concerns NCI-H526. Put plainly: Effect on cell cycle in human NCI-H526 cells assessed as cell accumulation at […] phase upto 1000 nM measured for 7 to 14 days by flow cytometry. It is filed as functional, cell-based. Particulars: time 7-14 day.
Data set [6] in a line: Effect on cleaved PARP level in human NCI-H1417 cells assessed as relative expression at 1000 nM measured after 14 days by Western blot analysis (reference value: 0.38). Particulars: time 14 day. It is filed as functional.
A short description of data set [7]: Effect on cleaved PARP level in human NCI-H1417 cells assessed as fold change at 1000 nM measured after 7 days by Western blot analysis (reference value: 1.00). It is filed as functional. To be noted: time 7 day.
The nature of data set [8]: Effect on cleaved PARP level in human NCI-H524 cells assessed as relative expression at 100 nM measured after 14 days by Western blot analysis (reference value: […]). The class given is functional. To be noted: time 14 day.
Data set [9] in a line: Effect on cleaved PARP level in human NCI-H524 cells assessed as relative expression at 1000 nM measured after 14 days by Western blot analysis (reference value: […]). It is filed as functional. Particulars: time 14 day.
The nature of data set [10]: Effect on cleaved PARP level in human NCI-H524 cells assessed as fold change at 10 nM measured after 10 days by Western blot analysis (reference value: 1.00). Particulars: time 10 day. The class given is functional.
A short description of data set [11]: Effect on cleaved PARP level in human COLO-668 cells assessed as relative expression at 100 nM measured after 7 days by Western blot analysis (reference value: […]). It is filed as functional. To be noted: time 7 day.
Data set [12] in a line: Effect on cleaved PARP level in human COLO-668 cells assessed as fold change at 100 nM measured after 7 days by Western blot analysis (reference value: 1.00). It is filed as functional. Particulars: time 7 day.
Data set [13] can be described thus: Effect on cleaved PARP level in human NCI-H1694 cells assessed as fold change at 100 nM measured after 14 days by Western blot analysis (reference value: 1.00). It is filed as functional. Particulars: time 14 day.
A short description of data set [14]: Effect on cleaved PARP level in human NCI-H69 cells assessed as fold change at 100 nM measured after 10 days by Western blot analysis (reference value: 1.00). To be noted: time 10 day. It is filed as functional.
Data set [15] is described as follows: Effect on cleaved PARP level in human NCI-H510 cells assessed as fold change at 10 nM measured after 7 days by Western blot analysis (reference value: 1.00). The class given is functional, NCI-H510A. To be noted: time 7 day.
The nature of data set [16]: Effect on cleaved PARP level in human NCI-H889 cells assessed as relative expression at 10 nM measured after 7 days by Western blot analysis (reference value: 0.34). It is filed as functional. Particulars: time 7 day.
Data set [17] can be described thus: Effect on cleaved PARP level in human NCI-H889 cells assessed as fold change at 1000 nM measured after 14 days by Western blot analysis (reference value: 1.00). It is filed as functional. Particulars: time 14 day.
The nature of data set [18]: Effect on cleaved PARP level in human NCI-H146 cells assessed as relative expression at 1000 nM measured after 7 days by Western blot analysis (reference value: […]). The class given is functional. Particulars: time 7 day.
Data set [19] is described as follows: Effect on cleaved PARP level in human NCI-H146 cells assessed as fold change at 100 nM measured after 10 days by Western blot analysis (reference value: 1.00). The class given is functional. To be noted: time 10 day.
The nature of data set [20]: Effect on cleaved PARP level in human NCI-H146 cells assessed as fold change at 1000 nM measured after 10 days by Western blot analysis (reference value: 1.00). It is filed as functional. To be noted: time 10 day.
Data set [21] can be described thus: Effect on cleaved PARP level in human NCI-H146 cells assessed as fold change at 10 nM measured after 14 days by Western blot analysis (reference value: 1.00). The class given is functional. To be noted: time 14 day.
For data set [22], the system named is NCI-H526. Put plainly: Antitumor activity against human NCI-H526 cells xenografted in nude mouse assessed as mean tumor volume at 1.5 mg/kg, po administered daily measured twice weekly (reference value: 2359 +/- 247 mm3). It is filed as functional.
A further data set has as its system NCI-H510A. Put plainly: Antitumor activity against human NCI-H510A cells xenografted in nude mouse assessed as mean tumor volume at 1.5 mg/kg, po administered daily measured twice weekly (reference value: 1028 +/- 182 mm3). The class given is functional.
Data set [23] relates to SHP77. Put plainly: Antitumor activity against human SHP77 cells xenografted in nude mouse assessed as mean tumor volume at […] mg/kg, po administered daily measured twice weekly (reference value: 2193 +/- 293 mm3). It is filed as functional. Particulars: 1.25 mg/kg.
The test system of data set [24] is NCI-H446. Put plainly: Effect on NSE gene expression in human NCI-H446 cells at 1 uM measured after 4 to 7 days by qRT-PCR analysis. It is filed as functional, cell-based. Particulars: time 4-7 day.
In the next data set the test system is COLO-668. Put plainly: Effect on SYP gene expression in human COLO-668 cells at 1 uM measured after 4 days by qRT-PCR analysis. It is filed as functional, cell-based. To be noted: time 4.0 day.
Data set [25] has as its system NCI-H446. Put plainly: Effect on SYP gene expression in human NCI-H446 cells at 1 uM measured after 4 days by qRT-PCR analysis. It is filed as functional, cell-based. To be noted: time 4.0 day.
The subject of data set [26] is SHP77. Put plainly: Effect on SYP gene expression in human SHP77 cells at 1 uM measured after 4 days by qRT-PCR analysis. It is filed as functional, cell-based. Particulars: time 4.0 day.
The subject of data set [27] is NCI-H526. Put plainly: In vivo inhibition of LSD1 in human NCI-H526 cells xenografted in nude mouse assessed as change in UMODL1 gene expression measured after 24 hrs post single administration by qRT-PCR analysis. The class given is functional, organism-based. To be noted: dose 0.06-135 mg/kg.
Data set [28] deals with NCI-H526. Put plainly: In vivo inhibition of LSD1 in human NCI-H526 cells xenografted in nude mouse assessed as change in IGFBP2 gene expression measured after 24 hrs post single administration by qRT-PCR analysis. Particulars: dose 0.06-135 mg/kg. It is filed as functional, organism-based.
The test system of data set [29] is NCI-H526. Put plainly: In vivo inhibition of LSD1 in human NCI-H526 cells xenografted in nude mouse assessed as change in TOX3 gene expression measured after 24 hrs post single administration by qRT-PCR analysis. To be noted: dose 0.06-135 mg/kg. The class given is functional, organism-based.
Data set [30] has as its system NCI-H526. Put plainly: In vivo inhibition of LSD1 in human NCI-H526 cells xenografted in nude mouse assessed as change in TSPAN8 gene expression administrated daily for 5 days by qRT-PCR analysis. It is filed as functional, organism-based. Particulars: dose 0.02-135 mg/kg, time 5.0 day.
Data set [31] relates to NCI-H526. Put plainly: In vivo inhibition of LSD1 in human NCI-H526 cells xenografted in nude mouse assessed as change in LIX1L gene expression administrated daily for 5 days by qRT-PCR analysis. The class given is functional, organism-based. To be noted: dose 0.02-135 mg/kg, time 5.0 day.
Data set [32] deals with NCI-H526. Put plainly: In vivo inhibition of LSD1 in human NCI-H526 cells xenografted in nude mouse assessed as change in KIAA1644 gene expression administrated daily for 5 days by qRT-PCR analysis. The class given is functional, organism-based. Particulars: dose 0.02-135 mg/kg, time 5.0 day.
The subject of another data set is NCI-H1417. Put plainly: In vivo inhibition of LSD1 in human NCI-H1417 cells xenografted in nude mouse assessed as change in ZEB1 gene expression measured after 24 hrs post single administration by qRT-PCR analysis. It is filed as functional, organism-based. To be noted: dose 0.02-135 mg/kg.
The target of a further data set is D-amino-acid oxidase (Homo sapiens, UniProt P14920).
Chain of D-amino-acid oxidase (P14920 whole entry, looked up): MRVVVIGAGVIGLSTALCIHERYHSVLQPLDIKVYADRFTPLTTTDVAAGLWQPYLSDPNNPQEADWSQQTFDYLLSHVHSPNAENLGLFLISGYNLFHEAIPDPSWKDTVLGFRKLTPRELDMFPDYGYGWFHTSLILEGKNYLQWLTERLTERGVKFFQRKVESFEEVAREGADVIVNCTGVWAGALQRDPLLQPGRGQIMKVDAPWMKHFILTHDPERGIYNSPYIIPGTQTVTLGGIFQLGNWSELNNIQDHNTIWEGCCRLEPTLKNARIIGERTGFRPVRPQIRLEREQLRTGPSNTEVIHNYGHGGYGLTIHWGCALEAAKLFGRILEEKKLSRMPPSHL

Structures are written as SMILES. Calls of active or inactive are those of the source. The rule behind the calls is not given here.

Description for D-amino-acid oxidase: Binding affinity to D-amino acid oxidase (unknown origin) assessed as inactivation constant

Turning to `c1ccc([C@@H]2C[C@H]2NC2CCNCC2)cc1`, the Tmax in data set [1] came to 0.3 h. The compound further returned an AUC/dose in data set [2] of 172 kg·ng·h/mL/mg.

With `O=C(O)c1ccc(CN2CCC(CN[C@@H]3C[C@H]3c3ccccc3)CC2)cc1` [GSK2879552], the figures for the half-life in [3] and in data set [4] were 1.9 h and 8.4 h, respectively. The result with NCI-H526 [5], with NCI-H446 [24], in the data set on COLO-668, with NCI-H446 [25] and with SHP77 [26] was inactive. Also, the Activity in [6] came to 0.42; in [8], 1.13; in data set [9] it was 1.17; in data set [11] it was 1.52; in [16] it was 0.03; in [18] it was 2.43. Further, the Activity in the data set with NCI-H526 [22] turned out to be 1113 mm3; in the data set on NCI-H510A, 705 mm3; in the data set on SHP77 [23], 1845 mm3. The “fold change (FC)” value in data set [7] is 3.48; in [10], 0.81; in data set [12], 1.06; in data set [13] it was 0.89; in data set [14] it was 1.62; in [15] it was 1.27. The “fold change (FC)” value in data set [17] was 2.82; in data set [19], 0.94; in data set [20] it was 0.89; in data set [21], 0.64. Further, the inhibition result in the data set on NCI-H526 [27], in the data set with NCI-H526 [28], with NCI-H526 [29], with NCI-H526 [30], in the data set on NCI-H526 [31] and in the data set on NCI-H526 [32] was “Dose-Dependent Effect” in each case. In addition, in the data set with NCI-H1417, the inhibition entry was “Dose-Dependent Effect”. This compound displayed a Kinact on D-amino-acid oxidase of 0.12 min⁻¹.
